Experiment: Chemical stability of the amide linkage (hydrolysis in NH4OH)
Format: physicochemical
Conditions: 30% NH4OH, 55° C., 24 h, assessed by TLC
Description: To assess the chemical stability of the amide linkages in the synthesized compounds, the monomer (6) (T'gly) was subjected to hydrolysis in 30% NH4 OH at 55° C. for 24 h. […] Thus, the amide bond appears to be stable with respect to general base catalyzed hydrolysis. From a practical perspective, this stability to 30% NH4 OH at 55° C. confirms that the amide linkage can withstand the hydrolysis required to remove base protecting groups which are necessary for polymerization of A,C and G homologues.

With `Cc1cn([C@H]2C[C@H](N)[C@@H](C(=O)NCC(=O)O)O2)c(=O)[nH]c1=O` [Compound 6, 1-(3-amino-2,3-dideoxy-β-D-erythro-pentofuranosyl-5-glycine uronate)thymine] the “hydrolysis of the amide linkage” value was “no hydrolysis of the amide linkage was detected”.

From patent US5175266A, “Nucleosides and oligonucleosides with a phosphate-free internucleoside backbone and process for preparing the same” (Triplex Pharmaceutical Corporation, priority 1991, dated 1992)
